From patent publication US20040122026A1, “Imidazolidine compounds” (Millennium Pharmaceuticals, Inc., priority 2002, published 2004)

Molecular target: T1, CXCR3 (Homo sapiens, UniProt P49682)
T1 construct: expressed in transfected cells; membrane preparation
T1 sequence (P49682 1-368): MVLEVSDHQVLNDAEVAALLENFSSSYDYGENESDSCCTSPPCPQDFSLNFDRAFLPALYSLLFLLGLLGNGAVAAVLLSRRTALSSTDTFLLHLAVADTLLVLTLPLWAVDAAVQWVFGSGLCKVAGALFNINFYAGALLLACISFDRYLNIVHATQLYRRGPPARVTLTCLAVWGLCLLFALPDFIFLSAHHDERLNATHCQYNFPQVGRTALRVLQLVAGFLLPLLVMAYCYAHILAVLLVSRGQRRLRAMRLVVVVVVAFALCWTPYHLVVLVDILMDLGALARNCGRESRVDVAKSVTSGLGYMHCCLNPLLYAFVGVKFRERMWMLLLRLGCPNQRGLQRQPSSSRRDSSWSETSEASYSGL
Assay: CXCR3/IP-10 radioligand binding (125I-IP-10 competition on CXCR3.L1/2 cell membranes)
Conditions: test compound 10 μmol/L; 125I-labeled IP-10 binding to CXCR3.L1/2 transfectant cell membranes; results Table 6
From the text: The activity of the compounds of the present invention can be assessed using a suitable assay, such as a receptor binding assay, a chemotaxis assay, an extracellular acidification assay or a calcium flux assay (see, for example, Hesselgesser et al., J. Biol. Chem., 273(25): 15687-15692 (1998) and WO 98/02151). For example, as described herein, small organic molecule antagonists of CXCR3/IP-10 binding have been identified utilizing cells engineered to express recombinant human CXCR3 (CXCR3.L1/2) and which bind ^125I-IP-10 and chemotax in response to IP-10, Mig, or I-TAC. Specifically, a high through-put receptor binding assay, which monitors ^125I-IP-10 biding to CXCR3.L1/2 cell membranes, was used to identify small molecule antagonists. Binding assays can be performed using other ligands of CXCR3, such as, Mig, and/or I-TAC.
CXCR3/IP-10 Radioligand Binding:
CXCR3.L1/2 Membrane Preparation:
CXCR3.L1/2 cells were pelleted by centrifugation and stored at −80° C. The cells were lysed by thawing and resuspending at about 1.5×10^7 cells/mL in a hypotonic buffer (5 mmol/L HEPES (pH 7.2), 2 mmol/L EDTA, 10 μg/mL each leupeptin, aprotinin, and chymostatin, and 100 μg/mL PMSF (all from Sigma, St. Louis)). Nuclei and cellular debris are removed by centrifugation ([…], at 4° C.) for 10 min. The supernatant was transferred to chilled centrifuge tubes (Nalge, Rochester, N.Y.) and the membrane fraction was recovered by centrifugation (25,000 g at 4° C.) for 45 min. The membrane pellet was resuspended in freezing buffer (10 mmol/L HEPES (pH 7.2), 300 mmol/L Sucrose, 5 μg/mL each of leupeptin, aprotinin, and chymostatin, and 10 μg/mL PMSF). The total protein concentration was determined using a coomassie blue staining protein concentration assay kit (BioRad). The membrane preparations are aliquoted and stored at −80° C. until time of use.
CXCR3/IP-10 binding was performed in 96-well polypropylene plates (Costar) in a final volume of 0.1 mL of HBB buffer (50 mmol/L Hepes pH 7.4, 1 mmol/L CaCl2, 5 mmol/L MgCl2, 0.02% sodium azide, 0.5% BSA (bovine serum albumin)), containing 1 to 5 μg CXCR3.L1/2 transfectant cell membrane protein and 0.05 to 0.2 nmol/L of ^125I-labeled IP-10 (NEN, Boston, Mass.). Competition binding experiments were performed by including variable concentrations of unlabeled IP-10 or test compound. Nonspecific binding was determined following the addition of a 250 nmol/L unlabelled IP-10. Samples were incubated for 60 min at room temperature, and bound and free tracer (^125I-labeled IP-10) were separated by filtration through 96-well GF/B filterplates presoaked in 0.3% polyethyleneimine. The filters were washed in HBB further supplemented with 0.5 mol/L NaCl, dried, and the amount of bound radioactivity determined by liquid scintillation counting. The competition is presented as the percent specific binding as calculated by 100×[(S−B)/(T−B)], where S is the radioactivity bound for each sample, B is background binding, and T is total bound in the absence of competitors. Duplicates were used throughout the experiments.

Row | Compound | inhibition at 10 µM [%] | % inhibition at 10 μmol/L [%]
1 | CCN(CC)Cc1cccc(N(C(=O)CCN2CCN(Cc3cc(C)cc(C)c3)C2=C(C#N)C#N)C(C)C)c1 [Compound 24, N-Isopropyl-N-[3-(diethylaminomethyl)phenyl]-3-[3-(3,5-dimethylbenzyl)-2-dicyanomethylideneimidazolidin-1-yl]propionamide] | 90 | 
2 | CCOC(=O)C1CCN(Cc2cccc(N(C(=O)CCN3CCN(Cc4cc(C)cc(C)c4)C3=C(C#N)C#N)C(C)C)c2)CC1 [Compound 25, N-Isopropyl-N-[3-(4-ethoxycarbonylpiperidinomethyl)phenyl]-3-[3-(3,5-dimethylbenzyl)-2-dicyanomethylideneimidazolidin-1-yl]propionamide] | 107 | 
3 | N-Isopropyl-N-[3-(piperidinomethyl)phenyl]-3-[3-(1-naphthalenylmethyl)-2-dicyanomethylidene imidazolidin-1-yl]propionamide [Compound 16] |  | 95

Continued, in another order:

Row | inhibition at 10 µM [%] | Compound | % inhibition at 10 μmol/L [%]
4 | 93 | Cc1cc(C)cc(CN2CCN(CCC(=O)N(c3cccc(CN(CCO)CCO)c3)C(C)C)C2=C(C#N)C#N)c1 [Compound 26, N-Isopropyl-N-[3-(bis(2-hydroxyethyl)aminomethyl)phenyl]-3-[3-(3,5-dimethylbenzyl)-2-dicyanomethylideneimidazolidin-1-yl]propionamide] | 
5 | 92 | Cc1cc(C)cc(CN2CCN(CCC(=O)N(c3cccc(CN(C)CCO)c3)C(C)C)C2=C(C#N)C#N)c1 [Compound 27, N-Isopropyl-N-[3-[(N-(2-hydroxyethyl)-N-methylamino)methyl]phenyl]-3-[3-(3,5-dimethylbenzyl)-2-dicyanomethylideneimidazolidin-1-yl]propionamide] | 
